Measured values from PubChem BioAssay (NCI).
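Each compound was tested at five concentrations against cells in 96-well plates for 48 hours. TGI: concentration producing complete growth inhibition.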

How the values were obtained:
Experiment in all cases: NCI tumour cell line growth inhibition, 48 h
HCT-15 colon = system: HCT-15 colon
SK-MEL-28 melanoma = system: SK-MEL-28 melanoma
786-0 renal = system: 786-0 renal
KM12 colon = system: KM12 colon
HCC-2998 colon = system: HCC-2998 colon
BT-549 breast = system: BT-549 breast
UO-31 renal = system: UO-31 renal
MDA-MB-231 breast = system: MDA-MB-231 breast
NCI/ADR-RES ovarian = system: NCI/ADR-RES ovarian
SN12C renal = system: SN12C renal
CAKI-1 renal = system: CAKI-1 renal
ACHN renal = system: ACHN renal
HCT-116 colon = system: HCT-116 colon
SF-268 CNS = system: SF-268 CNS
DU-145 prostate = system: DU-145 prostate
OVCAR-5 ovarian = system: OVCAR-5 ovarian
RXF 393 renal = system: RXF 393 renal
HOP-62 NSCLC = system: HOP-62 NSCLC
OVCAR-8 ovarian = system: OVCAR-8 ovarian
OVCAR-4 ovarian = system: OVCAR-4 ovarian
SNB-19 CNS = system: SNB-19 CNS
A498 renal = system: A498 renal
COLO 205 colon = system: COLO 205 colon
SW-620 colon = system: SW-620 colon
SK-MEL-5 melanoma = system: SK-MEL-5 melanoma
MOLT-4 leukemia = system: MOLT-4 leukemia
IGROV1 ovarian = system: IGROV1 ovarian
MALME-3M melanoma = system: MALME-3M melanoma
HS 578T breast = system: HS 578T breast
SR leukemia = system: SR leukemia
TK-10 renal = system: TK-10 renal
UACC-257 melanoma = system: UACC-257 melanoma
T-47D breast = system: T-47D breast
K-562 leukemia = system: K-562 leukemia
SK-OV-3 ovarian = system: SK-OV-3 ovarian
HT29 colon = system: HT29 colon
UACC-62 melanoma = system: UACC-62 melanoma
SNB-75 CNS = system: SNB-75 CNS
SF-295 CNS = system: SF-295 CNS
U251 CNS = system: U251 CNS
CCRF-CEM leukemia = system: CCRF-CEM leukemia
OVCAR-3 ovarian = system: OVCAR-3 ovarian
EKVX NSCLC = system: EKVX NSCLC
MDA-MB-435 = system: MDA-MB-435
RPMI-8226 leukemia = system: RPMI-8226 leukemia
LOX IMVI melanoma = system: LOX IMVI melanoma
MCF7 breast = system: MCF7 breast
SK-MEL-2 melanoma = system: SK-MEL-2 melanoma
A549 NSCLC = system: A549 NSCLC
M14 melanoma = system: M14 melanoma
MDA-N = system: MDA-N
NCI-H226 lung = system: NCI-H226 lung
NCI-H522 lung = system: NCI-H522 lung
PC-3 prostate = system: PC-3 prostate
NCI-H460 lung = system: NCI-H460 lung
NCI-H23 lung = system: NCI-H23 lung
HL-60(TB) leukemia = system: HL-60(TB) leukemia
HOP-92 NSCLC = system: HOP-92 NSCLC

O=c1onc2n1-c1cc(Cl)ccc1C(=S)N1CSCC21 (stereo not given)
TGI (HCT-15 colon): > 100 µM
TGI (SK-MEL-28 melanoma): > 100 µM
TGI (786-0 renal): > 100 µM
TGI (KM12 colon): > 100 µM
TGI (HCC-2998 colon): > 100 µM
TGI (BT-549 breast): > 100 µM
TGI (UO-31 renal): > 100 µM
TGI (MDA-MB-231 breast): > 100 µM
TGI (NCI/ADR-RES ovarian): > 100 µM
TGI (SN12C renal): > 100 µM
TGI (CAKI-1 renal): > 100 µM
TGI (ACHN renal): > 100 µM
TGI (HCT-116 colon): > 100 µM
TGI (SF-268 CNS): > 100 µM
TGI (DU-145 prostate): > 100 µM
TGI (OVCAR-5 ovarian): > 100 µM
TGI (RXF 393 renal): > 100 µM
TGI (HOP-62 NSCLC): > 100 µM
TGI (OVCAR-8 ovarian): > 100 µM
TGI (OVCAR-4 ovarian): > 100 µM
TGI (SNB-19 CNS): > 100 µM
TGI (A498 renal): > 100 µM
TGI (COLO 205 colon): > 100 µM
TGI (SW-620 colon): > 100 µM
TGI (SK-MEL-5 melanoma): > 100 µM
TGI (MOLT-4 leukemia): > 100 µM
TGI (IGROV1 ovarian): > 100 µM
TGI (MALME-3M melanoma): > 100 µM
TGI (HS 578T breast): > 100 µM
TGI (SR leukemia): > 100 µM
TGI (TK-10 renal): > 100 µM
TGI (UACC-257 melanoma): > 100 µM
TGI (T-47D breast): > 100 µM
TGI (K-562 leukemia): 63.8 µM
TGI (SK-OV-3 ovarian): > 100 µM
TGI (HT29 colon): > 100 µM
TGI (UACC-62 melanoma): > 100 µM
TGI (SNB-75 CNS): > 100 µM
TGI (SF-295 CNS): > 100 µM
TGI (U251 CNS): > 100 µM
TGI (CCRF-CEM leukemia): > 100 µM
TGI (OVCAR-3 ovarian): > 100 µM
TGI (EKVX NSCLC): > 100 µM
TGI (MDA-MB-435): > 100 µM
TGI (RPMI-8226 leukemia): > 100 µM
TGI (LOX IMVI melanoma): > 100 µM
TGI (MCF7 breast): > 100 µM
TGI (SK-MEL-2 melanoma): > 100 µM
TGI (A549 NSCLC): > 100 µM
TGI (M14 melanoma): > 100 µM
TGI (MDA-N): > 100 µM
TGI (NCI-H226 lung): > 100 µM
TGI (NCI-H522 lung): > 100 µM
TGI (PC-3 prostate): > 100 µM
TGI (NCI-H460 lung): > 100 µM

C[C@@H]1CC[C@H]2[C@H]1[C@H]1[C@@H](CC[C@]2(C)N=C=S)C1(C)C
TGI (HCT-15 colon): 64.6 µM
TGI (SK-MEL-28 melanoma): 49.7 µM
TGI (KM12 colon): 40 µM
TGI (HCC-2998 colon): 83.4 µM
TGI (BT-549 breast): 39.1 µM
TGI (UO-31 renal): > 100 µM
TGI (MDA-MB-231 breast): 52.7 µM
TGI (NCI/ADR-RES ovarian): 43.9 µM
TGI (SN12C renal): 44.7 µM
TGI (CAKI-1 renal): 92.4 µM
TGI (HCT-116 colon): 31.7 µM
TGI (DU-145 prostate): 49.6 µM
TGI (OVCAR-5 ovarian): > 100 µM
TGI (RXF 393 renal): 30.5 µM
TGI (HOP-62 NSCLC): > 100 µM
TGI (OVCAR-8 ovarian): > 100 µM
TGI (OVCAR-4 ovarian): > 100 µM
TGI (COLO 205 colon): 33.3 µM
TGI (SW-620 colon): 36 µM
TGI (SK-MEL-5 melanoma): 31.8 µM
TGI (MOLT-4 leukemia): 32.5 µM
TGI (NCI-H23 lung): 94.3 µM
TGI (HL-60(TB) leukemia): 54.3 µM
TGI (IGROV1 ovarian): > 100 µM
TGI (MALME-3M melanoma): 52.8 µM
TGI (HS 578T breast): > 100 µM
TGI (SR leukemia): 47 µM
TGI (TK-10 renal): > 100 µM
TGI (HOP-92 NSCLC): 84.7 µM
TGI (UACC-257 melanoma): 67.4 µM
TGI (T-47D breast): > 100 µM
TGI (K-562 leukemia): 35.7 µM
TGI (SK-OV-3 ovarian): > 100 µM
TGI (HT29 colon): 52.7 µM
TGI (UACC-62 melanoma): 42.6 µM
TGI (SNB-75 CNS): > 100 µM
TGI (SF-295 CNS): 46.9 µM
TGI (U251 CNS): 30.5 µM
TGI (CCRF-CEM leukemia): 30.9 µM
TGI (OVCAR-3 ovarian): 42.9 µM
TGI (MDA-MB-435): 96.6 µM
TGI (RPMI-8226 leukemia): 43.4 µM
TGI (LOX IMVI melanoma): > 100 µM
TGI (MCF7 breast): 34 µM
TGI (SK-MEL-2 melanoma): 43.9 µM
TGI (M14 melanoma): 78.1 µM
TGI (MDA-N): 23.4 µM
TGI (NCI-H226 lung): 38.8 µM
TGI (PC-3 prostate): > 100 µM
TGI (NCI-H460 lung): 47.3 µM
